In patent US10100064B2, “Purine inhibitors of human phosphatidylinositol 3-kinase delta” (Merck Sharp & Dohme Corp., priority 2014, dated 2018):

Tests used:
[1] = biological target: T1, PI3Kdelta (Homo sapiens, UniProt O00329); experiment: HTRF PI3K biochemical assay, delta isoform; settings: 0.3 nM enzyme, 100 uM ATP, 5 uM PIP2, form screened (Neutral or TFA salt) given per compound
T1 construct: purchased Upstate; Millipore 14-604
Outline: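 PI3Kδ at 0.3 nM with 100 uM ATP and 5 uM PIP2, 10-point 3-fold dilutions, 15 min enzyme–compound pre-incubation, then 1 h reaction at room temperature. PIP3 formation detected by HTRF displacement of biotin-PIP3 from GST-GRP1-PH (665/620 nm ratio). IC50 corrected using a PIP3 standard curve.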

[2] = biological target: T2, PI3Kalpha (Homo sapiens, UniProt P42336); experiment: HTRF PI3K biochemical assay, alpha isoform (selectivity versus delta); settings: relative ratio PI3K-alpha IC50 value / PI3K-delta IC50 value
T2 construct: purchased Upstate; Millipore 14-602
T2 sequence (P42336 whole entry, canonical isoform): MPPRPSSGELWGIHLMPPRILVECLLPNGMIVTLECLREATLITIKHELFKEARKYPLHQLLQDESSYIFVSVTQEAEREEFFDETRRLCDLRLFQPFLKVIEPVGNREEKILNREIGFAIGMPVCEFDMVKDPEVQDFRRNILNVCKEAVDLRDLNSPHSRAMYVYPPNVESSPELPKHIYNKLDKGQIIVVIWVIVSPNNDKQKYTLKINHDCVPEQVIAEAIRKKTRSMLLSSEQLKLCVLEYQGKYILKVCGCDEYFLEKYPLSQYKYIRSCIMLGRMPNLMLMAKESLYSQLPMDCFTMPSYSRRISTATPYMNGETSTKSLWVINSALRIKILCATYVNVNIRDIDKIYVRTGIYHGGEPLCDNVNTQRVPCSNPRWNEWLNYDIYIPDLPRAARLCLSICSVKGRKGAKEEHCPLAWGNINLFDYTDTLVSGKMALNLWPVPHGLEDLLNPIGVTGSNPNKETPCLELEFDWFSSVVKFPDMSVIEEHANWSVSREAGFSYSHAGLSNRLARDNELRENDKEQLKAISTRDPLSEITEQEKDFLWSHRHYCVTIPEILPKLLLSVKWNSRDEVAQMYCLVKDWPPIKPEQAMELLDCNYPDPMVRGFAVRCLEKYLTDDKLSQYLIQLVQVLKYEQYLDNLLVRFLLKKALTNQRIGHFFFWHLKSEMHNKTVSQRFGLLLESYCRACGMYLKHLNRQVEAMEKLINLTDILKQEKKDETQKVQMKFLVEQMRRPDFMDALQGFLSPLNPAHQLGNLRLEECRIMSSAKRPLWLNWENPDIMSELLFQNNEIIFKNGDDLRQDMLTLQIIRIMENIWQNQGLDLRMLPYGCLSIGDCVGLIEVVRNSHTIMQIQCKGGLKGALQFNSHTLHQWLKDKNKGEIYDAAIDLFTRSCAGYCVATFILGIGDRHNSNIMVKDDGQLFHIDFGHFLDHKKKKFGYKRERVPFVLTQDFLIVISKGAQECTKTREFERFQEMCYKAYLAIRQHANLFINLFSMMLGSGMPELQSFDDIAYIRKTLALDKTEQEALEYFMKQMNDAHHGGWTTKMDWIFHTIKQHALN
T2 sequence (P27986 whole entry partner, canonical isoform): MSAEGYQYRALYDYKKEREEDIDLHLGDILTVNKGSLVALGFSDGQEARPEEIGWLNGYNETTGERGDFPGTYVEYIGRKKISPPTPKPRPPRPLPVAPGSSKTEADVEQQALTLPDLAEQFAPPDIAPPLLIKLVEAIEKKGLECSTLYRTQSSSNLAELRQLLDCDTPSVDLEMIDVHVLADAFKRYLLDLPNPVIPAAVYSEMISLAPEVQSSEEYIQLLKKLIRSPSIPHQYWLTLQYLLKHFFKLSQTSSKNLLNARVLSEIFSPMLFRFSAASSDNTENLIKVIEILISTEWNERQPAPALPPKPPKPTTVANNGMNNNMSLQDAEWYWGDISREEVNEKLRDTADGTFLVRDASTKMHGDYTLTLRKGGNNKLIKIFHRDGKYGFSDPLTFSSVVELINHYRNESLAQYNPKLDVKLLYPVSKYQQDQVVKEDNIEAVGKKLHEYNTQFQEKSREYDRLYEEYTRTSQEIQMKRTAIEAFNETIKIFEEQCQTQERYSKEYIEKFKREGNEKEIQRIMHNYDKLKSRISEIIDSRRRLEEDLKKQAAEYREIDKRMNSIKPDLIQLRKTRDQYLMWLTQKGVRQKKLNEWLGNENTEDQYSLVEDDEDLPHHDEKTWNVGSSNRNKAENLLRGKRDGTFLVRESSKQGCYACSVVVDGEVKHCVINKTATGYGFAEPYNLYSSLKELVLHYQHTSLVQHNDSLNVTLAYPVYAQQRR
Outline: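 Recombinant PI3Kα (0.5 nM) pre-incubated 15 min with compound, then reacted 1 h at room temperature with 5 μM PIP2 and 100 μM ATP. After EDTA stop, PIP3 measured by HTRF displacement of biotin-PIP3 from GST-GRP1 PH domain (665/620 nm). 10-point dose response; IC50 corrected using a PIP3 standard curve.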

T1 sequence (O00329 whole entry, canonical isoform): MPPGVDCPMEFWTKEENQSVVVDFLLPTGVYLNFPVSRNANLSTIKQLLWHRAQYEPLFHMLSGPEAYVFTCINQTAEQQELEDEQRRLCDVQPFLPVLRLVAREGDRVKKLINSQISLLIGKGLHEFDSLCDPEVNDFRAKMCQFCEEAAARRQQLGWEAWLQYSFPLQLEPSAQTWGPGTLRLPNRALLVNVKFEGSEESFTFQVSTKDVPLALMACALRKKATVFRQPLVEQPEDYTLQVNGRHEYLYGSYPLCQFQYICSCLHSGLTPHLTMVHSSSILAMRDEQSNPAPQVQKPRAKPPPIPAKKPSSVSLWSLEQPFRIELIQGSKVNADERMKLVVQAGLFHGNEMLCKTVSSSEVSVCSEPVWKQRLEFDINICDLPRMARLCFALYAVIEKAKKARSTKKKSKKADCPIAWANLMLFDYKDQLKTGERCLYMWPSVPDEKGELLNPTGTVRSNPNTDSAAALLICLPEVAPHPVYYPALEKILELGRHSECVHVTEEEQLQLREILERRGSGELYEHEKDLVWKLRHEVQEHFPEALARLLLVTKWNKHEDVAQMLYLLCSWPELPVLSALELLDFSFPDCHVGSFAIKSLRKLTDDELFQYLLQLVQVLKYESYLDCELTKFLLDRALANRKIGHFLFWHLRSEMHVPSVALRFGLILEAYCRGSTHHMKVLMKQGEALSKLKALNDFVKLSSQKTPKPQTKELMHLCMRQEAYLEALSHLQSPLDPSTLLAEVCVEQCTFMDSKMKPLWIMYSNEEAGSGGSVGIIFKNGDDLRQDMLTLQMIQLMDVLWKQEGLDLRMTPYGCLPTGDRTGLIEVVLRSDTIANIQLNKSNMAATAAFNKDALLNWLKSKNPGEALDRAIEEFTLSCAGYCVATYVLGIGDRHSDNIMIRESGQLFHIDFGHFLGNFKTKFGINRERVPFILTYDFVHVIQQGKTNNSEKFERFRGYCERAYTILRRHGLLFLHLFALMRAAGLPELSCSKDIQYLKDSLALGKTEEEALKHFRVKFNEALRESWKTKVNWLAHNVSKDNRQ
T1 sequence (P27986 whole entry partner, canonical isoform): as the sequence (P27986 whole entry partner, canonical isoform) above

Row | Compound | IC50 [1] [nM] | Selectivity versus PI3Kalpha [2]
1 | CCn1c(-n2cnc(C(F)(F)F)c2)nc2c(NC3CCc4nnc(C(C)C)n4C3)ncnc21 (single isomer, unassigned) [Compound 1-25, 9-ethyl-N-[(6(S or R))-3-(1-methylethyl)-5,6,7,8-tetrahydro[1,2,4]triazolo[4,3-a]pyridin-6-yl]-8-[4-(trifluoromethyl)-1H-imidazol-1-yl]-9H-purin-6-amine] | 24 | >10
2 | CCc1nnc2n1CC(Nc1ncnc3c1nc(-c1cnc(C)nc1)n3CC)CC2 (single isomer, unassigned) [Compound 1-7, (S or R)-9-ethyl-N-[3-ethyl-5,6,7,8-tctrahydro[1,2,4]triazolo[4,3-a]pyridin-6-yl]-8-(2-methylpyrimidin-5-yl)-9H-purin-6-amine] | 13 | >10
3 | CCn1c(-c2cnc(C)nc2)nc2c(NC3Cc4cnn(Cc5ccccc5)c4C3)ncnc21 (racemic) [Compound 2-26, (S and R)-N-(1-benzyl-1,4,5,6-tetrahydrocyclopenta[c]pyrazol-5-yl)-9-ethyl-8-(2-methylpyrimidin-5-yl)-9H-purin-6-amine] | 6.1 | >10
4 | CCc1nnc2n1CC(Nc1ncnc3c1nc(-c1cnc(C)nc1)n3CC)CC2 (single isomer, unassigned) [Compound 1-6, (S or R)-9-ethyl-N-[3-ethyl-5,6,7,8-tetrahydro[1,2,4]triazolo[4,3-a]pyridin-6-yl]-8-(2-methylpyrimidin-5-yl)-9H-purin-6-amine] | 2 | >10
5 | CCn1c(-c2cnc(OC)c(F)c2)nc2c(NC3CCc4nnc(C5CC5)n4C3)ncnc21 (racemic) [Compound 1-13, (S and R)-N-(3-cyclopropyl-5,6,7,8-tetrahydro[1,2,4]triazolo[4,3-a]pyridin-6-yl)-9-ethyl-8-(5-fluoro-6-methoxypyridin-3-yl)-9H-purin-6-amine] | 1.1 | >10
6 | CCCn1nc(C(C)C)c2c1CCC(Nc1ncnc3c1nc(-c1cnc(C)nc1)n3CC)C2 (single isomer, unassigned) [Compound 2-10, (S or R)-9-ethyl-N-[3-(1-methylethyl)-1-propyl-4,5,6,7-tetrahydro-1H-indazol-5-yl]-8-(2-methylpyrimidin-5-yl)-9H-purin-6-amine] | 6.1 | >10
7 | CCn1c(-c2cnc(C)nc2)nc2c(NC3(C)CCc4[nH]nc(C(C)C)c4C3)ncnc21 (single isomer, unassigned) [Compound 2-5, (S or R)-9-ethyl-N-[5-methyl-3-(1-methylethyl)-4,5,6,7-tetrahydro-1H-indazol-5-yl]-8-(2-methylpyrimidin-5-yl)-9H-purin-6-amine] | 4.1 | >10
8 | CCn1c(C(=O)NCC(F)(F)F)nc2c(NC3CCc4nnc(C(C)C)n4C3)ncnc21 (racemic) [Compound 1-37, (S and R)-9-ethyl-6-{[3-(1-methylethyl)-5,6,7,8-tetrahydro[1,2,4]triazolo[4,3-a]pyridin-6-yl]amino}-N-(2,2,2-trifluoroethyl)-9H-purine-8-carboxamide] | 12 | >10
9 | CCn1c(-c2cnc(C)nc2)nc2c(NC3CCc4c(c(C(C)C)nn4C(=O)OC(C)(C)C)C3)ncnc21 (racemic) [Compound 2-16, (S and R)-tert-butyl 5-{[9-ethyl-8-(2-methylpyrirnidin-5-yl)-9H-purin-6-yl]amino}-3-(1-methylethyl)-4,5,6,7-tetrahydro-1H-indazole-1-carboxylate] | < 1 | >10
10 | CCn1c(-c2cnc(C)nc2)nc2c(OC3CCc4nnc(C5CC5)n4C3)ncnc21 (single isomer, unassigned) [Compound 1-31, (S or R)-6-{[3-cyclopropyl-5,6,7,8-tetrahydro[1,2,4]triazolo[4,3-a]pyridin-6-yl]oxy}-9-ethyl-8-(2-methylpyrimidin-5-yl)-9H-purine] | 220 | >10
11 | CCn1c(I)nc2c(NC3CCc4nnc(C5CC5)n4C3)ncnc21 (single isomer, unassigned) [Compound 1-27, (S or R)-N-[3-cyclopropyl-5,6,7,8-tetrahydro[1,2,4]triazolo[4,3-a]pyridin-6-yl]-9-ethyl-8-iodo-9H-purin-6-amine] | 151 | >10
12 | CCn1c(-c2cnc(C)nc2)nc2c(NC3CCc4c(c(C(C)C)nn4C(=O)OC(C)C)C3)ncnc21 (racemic) [Compound 2-18, (S and R)-1-methylethyl 5-{[9-ethyl-8-(2-methylpyrimidin-5-yl)-9H-purin-6-yl]amino}-3-(1-methylethyl)-4,5,6,7-tetrahydro-1H-indazole-1-carboxylate] | < 1 | >10
13 | CCn1c(-c2cnc(C)nc2)nc2c(NC3CCc4c(c(C(C)C)nn4CCN(C)C)C3)ncnc21 (racemic) [Compound 2-3, (S and R)-N-{1-[2-(dimethylamino)ethyl]-3-(1-methylehyl)-4,5,6,7-tetrahydro-1H-indazol-5-yl}-9-ethyl-8-(2-methylpyrimidin-5-yl)-9H-purin-6-amine] | 7.4 | >10
14 | CCn1c(-c2cnc(C)nc2)nc2c(NC3CCc4nn(C)c(C(C)C)c4C3)ncnc21 (single isomer, unassigned) [Compound 2-24, (S or R)-9-ethyl-N-[(5S)-2-methyl-3-(1-methylethyl)-4,5,6,7-tetrahydro-2H-indazol-5-yl]-8-(2-methylpyrimidin-5-yl)-9H-purin-6-amine] | 41 | >10
15 | CCn1c(-c2ccc(C(F)(F)F)cc2)nc2c(NC3CCc4nnc(C5CC5)n4C3)ncnc21 (single isomer, unassigned) [Compound 1-28, (S or R)-N-(3-cyclopropyl-5,6,7,8-tetrahydro[1,2,4]triazolo[4,3-a]pyridin-6-yl)-9-ethyl-8-[4-(trifluoromethyl)phenyl]-9H-purin-6-amine] | 1.4 | >10

More lines, now with the values ahead:

Row | IC50 [1] [nM] | Selectivity versus PI3Kalpha [2] | Compound
16 | 210 | >10 | CCn1c(-c2cnc(C)nc2)nc2c(NC3CCc4ncc(C(C)C)n4C3)ncnc21 (single isomer, unassigned) [Compound 4-4, (S or R)-9-ethyl-N-[3-(1-methylethyl)-5,6,7,8-tetrahydroimidazo[1,2-a]pyridin-6-yl]-8-(2-methylpyrimidin-5-yl)-9H-purin-6-amine]
17 | 5.1 | >10 | CCn1c(-c2ccc(C(F)(F)F)cc2)nc2c(NC3CCc4ncn(C5CC5)c4C3)ncnc21 (single isomer, unassigned) [Compound 5-5, (S or R)-N-(1-cyclopropyl-4,5,6,7-tetrahydro-1H-benzimidazol-6-yl)-9-ethyl-8-[4-(trifluoromethyl)phenyl]-9H-purin-6-amine]
18 | 5.5 | >10 | CCn1c(-c2cnc(C)nc2)nc2c(NC3CCc4ncn(C5CC5)c4C3)ncnc21 (single isomer, unassigned) [Compound 5-1, (S or R)-N-(1-cyclopropyl-4,5,6,7-tetrahydro-1H-benzimidazol-6-yl)-9-ethyl-8-(2-methylpyrimidin-5-yl)-9H-purin-6-amine]
19 | < 1 | >10 | CCn1c(-c2cnc(C)nc2)nc2c(NC3CCc4nc(Cl)n(C5CC5)c4C3)ncnc21 (racemic) [Compound 5-12, (S and R)-N-(2-chloro-1-cyclopropyl-4,5,6,7-tetrahydro-1H-benzimidazol-6-yl)-9-ethyl-8-(2-methylpyrimidin-5-yl)-9H-purin-6-amine]
20 | 6.9 | >10 | CCn1c(-c2cnc(C)nc2)nc2c(NC3CCc4ncc(C5CC5)n4C3)ncnc21 (single isomer, unassigned) [Compound 4-1, (S or R)-N-(3-cyclopropyl 5,6,7,8-tetrahydroimidazo[1,2-a]pyridin-6-yl)-9-ethyl-8-(2-methylpyrimidin-5-yl)-9H-purin-6-amine]
21 | 180 | >10 | CCn1c(-c2ccc(C(F)(F)F)nc2)nc2c(NC3CCc4ncn(C5CC5)c4C3)ncnc21 (single isomer, unassigned) [Compound 5-3, (S or R)-N-(1-cyclopropyl-4,5,6,7-tetrahydro-1H-benzimidazol-6-yl)-9-ethyl-8-[6-(trifluoromethyl)pyridin-3-yl]-9H-purin-6-amine]
22 | 19 | >10 | CCn1c(-c2cnc(C)nc2)nc2c(NC3CCc4nc(C)n(C5CC5)c4C3)ncnc21 (single isomer, unassigned) [Compound 5-7, (S or R)-N-(1-cyclopropyl-2-methyl-4,5,6,7-tetrahydro-1H-benzimidazol-6-yl)-9-ethyl-8-(2-methylpyrimidin-5-yl)-9H-purin-6-amine]
23 | 5.2 | >10 | CCn1c(-c2cnc(C)nc2)nc2c(NC3CCc4cnc(C(C)C)n4C3)ncnc21 (single isomer, unassigned) [Compound 3-2, (S or R)-9-ethyl-N-[3-(1-methylethyl)-5,6,7,8-tetrahydroimidazo[1,5-a]pyridin-6-yl)-8-(2-methylpyrimidin-5-yl)-9H-purin-6-amine]
